Patent publication EP0624368A2, “Use of a composition for stimulating the synthesis of glutathione in the manufacture of a medicament for the treatment of acquired immune deficiency syndrome” (priority 1993, dated 1994)

Key:
[1] = system: mice; experiment: Bone marrow smear evaluation in treated mice
[2] = system: HIV-1 (strain IIIB); experiment: HIV p24 antigen assay in H-9 cells (single and combination treatment); format: cell-based; conditions: 80 IU/well HIV; for OD readings at 450 nm (HIV p24 antigen): H-9; for Calculated single treatment ED50: H-9 cells, p24 assay
Description: (§1) Three cell culture systems were used in this study: H-9 cells; MT-2 cells; and normal human peripheral blood mononuclear cells (PBMC). H-9 cells were obtained from Advanced Biotechnology Inc. (ABI). MT-2 cells were obtained from Dr. J. Armstrong of the University of Pittsburgh. MT-2 cells are HTLV-I transformed human T lymphocytes and continuously produce HTLV-I virions. PBMC were obtained from healthy donors, purified by Ficol-Hypaque, and stimulated with PHA mitogen before being used in the efficacy studies. The initial stock of HIV-1 (strain IIIB) used in this study was obtained from ABI and the working stocks were produced.
(§2) Cells were collected, put into tissue culture plates and incubated with different concentrations of drugs in RPMI 1640 tissue culture medium for 20 minutes prior to HIV challenge. Infection was carried out by inoculating 20-100 HIV infectious units (IU)/well inoculum without removing the drugs. The untreated cells exposed to HIV challenge served as positive controls. The normal untreated uninfected cells served as negative controls.
(§3) When evaluating the efficacies of drugs in H-9 cells and PBMC systems, only HIV p24 assays were used. To calculate the ED₅₀ values, a second order linear regression was applied on the logarithm of the tested doses of different drugs against the OD readings obtained from either MTT assays or HIV p24 assays.
(§4) Cells were collected, put into tissue culture plates and incubated with different combinations of drugs for 20 minutes prior to HIV infection in the combined treatment studies. Infection was carried out by inoculating 20-100 HIV IU/well inoculum without removing the drugs. The inocula were the same as the ones used in the single drug treatment to obtain the ED₅₀ values. Both MTT assays and HIV p24 antigen assays were used in evaluation of drug effects in MT-2 cells but only HIV p24 antigen assays were used for H-9 cells or PBMC.
(§5) Therefore, if the CI is less than 1, it indicates synergism among the tested drugs. Similarly, if the CI is equal to 1, the effects are additive, while a CI value greater than 1 is indicative of an antagonistic effect.

[3] = system: HIV-1 (strain IIIB); experiment: HIV p24 antigen assay in PBMC (single and combination treatment); format: cell-based; conditions: 50 IU/well HIV; for Calculated single treatment ED50: p24 assay
Description: as §1, §2, §3, §4, §5

[4] = system: mice; experiment: Bone marrow aspirate count and stem cell colony assay in treated mice; format: in vivo
Experimental: Populations of bone marrow colony forming cells were evaluated. Bone marrow was collected and the stem cell assay conducted, as follows: one femur per mouse was cut at the distal and proximal ends. Using a syringe and 25 gauge needle, 5 mL of IMDM media was flushed through the femur into a collection tube (2.5 mL flushed into one end, then 2.5 ml into the other end). The tube was washed using Iscove's Modified Dulbecco's Media containing 20% fetal bovine serum and the cell concentration was adjusted to the desired count for the colony assay.
In triplicate, the marrow cells were put into a mixture of methylcellulose and plated into 35 mm diameter dishes. The dishes were incubated for approximately 2 weeks (37°C, 5% CO₂, 100% relative humidity) then manually scored under a microscope for myeloid, erythroid, and mixed colonies.

[5] = system: mice; experiment: Hematology of terminal blood in mice treated with AZT with or without Procysteine diet; format: in vivo; conditions: both sexes, AZT 50 or 500 mg/kg body weight/day by gavage 14 days, 1.0% Procysteine® diet in combination groups, p<0.01
Experimental: On study day 17, the animals were anesthetized with methoxyflurane (in a bell jar). When deeply anesthetized, blood was obtained from the abdominal aorta and transferred for hematological analysis into tubes containing an K₂EDTA suspension.
The following assays were conducted. Leukocyte count Erythrocyte count Total hemoglobin concentration Hematocrit Mean corpuscular volume (MCV) Mean corpuscular hemoglobin (MCH) Mean corpuscular hemoglobin concentration Platelet count Reticulocyte count Differential leukocyte count

[6] = system: HIV-1 (strain IIIB); experiment: MTT assay of protection against acute HIV infection in MT-2 cells; format: cell-based; conditions: 100 IU/well HIV; for OD readings at 540 nm (MTT assay): MT-2, Day 6 cultures; for Calculated single treatment ED50: MT-2 cells, MTT assay
Description: as §1, §2
(§6) Both the MTT assay and HIV p24 ELISA were used for evaluation of drug efficacies with MT-2 cells. The MTT assay is based upon the metabolic reduction of the MTT tetrazolium bromide dye in live cells. The OD readings (at 540 nm) obtained from the MTT assay are inversely correlated to the levels of cell mortality due to HIV infection or the cytotoxic effect of drugs. […] The HIV p24 antigen assay measures the level of HIV antigen present in the sample (i.e., culture supernatant).
as §3

[7] = system: MT-2 cells; experiment: Toxicity study (median lethal dose) in MT-2 cells; format: cell-based, human
Experimental: (§7) The median lethal doses (LD₅₀) of single treatment of Procysteine® were 5 mM with PBMC, 21 mM with H-9 cells, and 31 mM with MT-2 cells. […] Therefore, both 25 mM or 50 mM of Procysteine® could have caused significant cell mortality in the test cell systems. […] To avoid the misinterpretation of drug antiviral efficacy due to toxicity, an alternative design using lower concentrations of Procysteine® in the combination treatment was performed. […] The HIV p24 assays were performed for analysis.

[8] = system: H-9 cells; experiment: Toxicity study (median lethal dose) in H-9 cells; format: cell-based
Experimental: as §7

[9] = system: HIV-1 (strain IIIB); experiment: HIV p24 antigen assay in MT-2 cells (single and combination treatment); format: cell-based; conditions: 20 IU/well HIV; for OD readings at 450 nm (HIV p24 antigen): MT-2; for Calculated single treatment ED50: MT-2 cells, p24 assay
Description: as §1, §2, §6, §3, §4, §5

[10] = system: H-9, MT-2, and PBMC; experiment: Toxicity study (median lethal dose), all three cell systems together; format: cell-based; conditions: range over the cell systems studied in this protocol
Experimental: as §7

[11] = system: PBMC; experiment: Toxicity study (median lethal dose) in PBMC; format: cell-based, human
Experimental: as §7

[12] = 10⁴ nucleated cells cultured 14 days

## Cc1cn([C@H]2C[C@H](N=[N+]=[N-])[C@@H](CO)O2)c(=O)[nH]c1=O [AZT]
[1]; AZT 50 or 500 mg/kg body weight/day, 1.0% Procysteine® diet in combination groups
  total count of erythroid series cells in bone marrow smears: reduced total count
[1]; AZT-treated
  metarubricytes (nonproliferating) in bone marrow smears: marked reduction
  rubriblasts in bone marrow smears: mild reduction
[1]; bone marrow smears
  nonproliferating compartment of the myeloid series: reduction
  proliferating compartment of the myeloid series: significantly increased
[2]; 0.0025 μM
  OD readings at 450 nm (HIV p24 antigen): 4.133
[2]; 0.01 μM
  OD readings at 450 nm (HIV p24 antigen): 4.133
[2]; 0.04 μM
  OD readings at 450 nm (HIV p24 antigen): 4.133
[2]; 0.16 μM
  OD readings at 450 nm (HIV p24 antigen): 3.815
[2]; 0.64 μM
  OD readings at 450 nm (HIV p24 antigen): 0.358
[3]; 0.0025 μM
  OD readings at 450 nm (HIV p24 antigen): 3.405
[3]; 0.01 μM
  OD readings at 450 nm (HIV p24 antigen): 2.978
[3]; 0.04 μM
  OD readings at 450 nm (HIV p24 antigen): 0.155
[3]; 0.16 μM
  OD readings at 450 nm (HIV p24 antigen): 0.163
[3]; 0.64 μM
  OD readings at 450 nm (HIV p24 antigen): 0.204
[3]
  Calculated single treatment ED50: 0.021 µM
[4]; [12]
  burst forming units-erythroid for marrow cultures: No group differences
  total colonies and colony forming units-granulocyte/macrophage: significant induction
[4]; AZT 50 or 500 mg/kg body weight/day, compared to controls
  nucleated cells in bone marrow aspirates: significant reduction
[5]
  hematological effects in terminal blood (hemoglobin, hematocrit, erythrocyte counts decreased; MCV, MCH increased): Anemia
[6]; 0.0025 μM
  OD readings at 540 nm (MTT assay): 0.474
[6]; 0.01 μM
  OD readings at 540 nm (MTT assay): 0.641
[6]; 0.04 μM
  OD readings at 540 nm (MTT assay): 0.678
[6]; 0.16 μM
  OD readings at 540 nm (MTT assay): 0.688
[6]; 0.64 μM
  OD readings at 540 nm (MTT assay): 0.946
[6]
  Calculated single treatment ED50: 0.055 µM

## O=C1N[C@H](C(=O)O)CS1 [Procysteine®]
[7]; as quoted in the discussion of ddI combination treatment
  LD50 value: 31 to 32 mM
[7]; single treatment
  median lethal doses (LD50): 31 mM
[7]; with 1 µM of AZT
  LD50 value: 36 mM
[2]; 0.023 mM
  OD readings at 450 nm (HIV p24 antigen): 4.133
[2]; 0.23 mM
  OD readings at 450 nm (HIV p24 antigen): 4.133
[2]; 0.93 mM
  OD readings at 450 nm (HIV p24 antigen): 4.133
[2]; 3.75 mM
  OD readings at 450 nm (HIV p24 antigen): 4.133
[2]; 15 mM
  OD readings at 450 nm (HIV p24 antigen): 4.099
[2]; 60 mM
  OD readings at 450 nm (HIV p24 antigen): 0.767
[2]
  Calculated single treatment ED50: 653000 µM
[8]; single treatment
  median lethal doses (LD50): 21 mM
[8]; with 1 µM of AZT
  LD50 value: 30 mM
[9]; 0.023 mM
  OD readings at 450 nm (HIV p24 antigen): 3.269
[9]; 0.23 mM
  OD readings at 450 nm (HIV p24 antigen): 3.712
[9]; 0.93 mM
  OD readings at 450 nm (HIV p24 antigen): 3.762
[9]; 3.75 mM
  OD readings at 450 nm (HIV p24 antigen): 3.649
[9]; 15 mM
  OD readings at 450 nm (HIV p24 antigen): 2.825
[9]; 60 mM
  OD readings at 450 nm (HIV p24 antigen): 1.675
[9]
  Calculated single treatment ED50: 1613 mM
[3]; 0.023 mM
  OD readings at 450 nm (HIV p24 antigen): 3.703
[3]; 0.23 mM
  OD readings at 450 nm (HIV p24 antigen): 3.057
[3]; 0.93 mM
  OD readings at 450 nm (HIV p24 antigen): 2.951
[3]; 3.75 mM
  OD readings at 450 nm (HIV p24 antigen): 3.640
[3]; 15 mM
  OD readings at 450 nm (HIV p24 antigen): 3.284
[3]; 60 mM
  OD readings at 450 nm (HIV p24 antigen): 1.141
[3]
  Calculated single treatment ED50: 378000 µM
[10]
  median lethal doses (LD50): 5 to 30 mM
[11]; single treatment
  median lethal doses (LD50): 5 mM
[11]; with 1 µM of AZT
  LD50 value: 8.3 mM
[6]; 0.023 mM
  OD readings at 540 nm (MTT assay): 0.392
[6]; 0.23 mM
  OD readings at 540 nm (MTT assay): 0.265
[6]; 0.93 mM
  OD readings at 540 nm (MTT assay): 0.283
[6]; 3.75 mM
  OD readings at 540 nm (MTT assay): 0.270
[6]; 15 mM
  OD readings at 540 nm (MTT assay): 0.308
[6]; 60 mM
  OD readings at 540 nm (MTT assay): 0.350
[6]
  Calculated single treatment ED50: 2.3e+16 µM

## O=c1[nH]cnc2c1ncn2[C@H]1CC[C@@H](CO)O1 [ddI]
[2]; 0.25 μM
  OD readings at 450 nm (HIV p24 antigen): 3.984
[2]; 1 μM
  OD readings at 450 nm (HIV p24 antigen): 1.542
[2]; 4 μM
  OD readings at 450 nm (HIV p24 antigen): 0.772
[2]; 16 μM
  OD readings at 450 nm (HIV p24 antigen): 0.716
[2]; 64 μM
  OD readings at 450 nm (HIV p24 antigen): 0.329
[2]
  Calculated single treatment ED50: 2.424 µM
[9]; 0.25 μM
  OD readings at 450 nm (HIV p24 antigen): 3.351
[9]; 1 μM
  OD readings at 450 nm (HIV p24 antigen): 3.025
[9]; 4 μM
  OD readings at 450 nm (HIV p24 antigen): 0.710
[9]; 16 μM
  OD readings at 450 nm (HIV p24 antigen): 1.167
[9]; 64 μM
  OD readings at 450 nm (HIV p24 antigen): 1.131
[9]
  Calculated single treatment ED50: 0.004069 mM
[3]; 0.25 μM
  OD readings at 450 nm (HIV p24 antigen): 2.730
[3]; 1 μM
  OD readings at 450 nm (HIV p24 antigen): 2.658
[3]; 4 μM
  OD readings at 450 nm (HIV p24 antigen): 0.672
[3]; 16 μM
  OD readings at 450 nm (HIV p24 antigen): 0.212
[3]; 64 μM
  OD readings at 450 nm (HIV p24 antigen): 0.098
[6]; 0.25 μM
  OD readings at 540 nm (MTT assay): 0.551
[6]; 1 μM
  OD readings at 540 nm (MTT assay): 0.603
[6]; 4 μM
  OD readings at 540 nm (MTT assay): 0.561
[6]; 16 μM
  OD readings at 540 nm (MTT assay): 0.880
[6]; 64 μM
  OD readings at 540 nm (MTT assay): 1.135
[6]
  Calculated single treatment ED50: 2.778 µM
